Reference: US7795315B2, “N-(2-amino-phenyl)-amide derivatives” (Hoffman-La Roche Inc., priority 2008, dated 2010)

What was measured:
Format in all cases: cell-based
[1] = tested on: p21 promoter-luciferase construct in HeLa cells; test: p21 reporter gene induction; conditions: 3 micromolar, 15 hours, relative to SNDX-275
Experimental: (§1) The novel compounds of the present invention were tested for their ability to induce p21 gene expression using a reporter gene assay involving HeLa cells transfected with a p21 promoter-luciferase construct. The p21 promoter contained the Sp1/Sp3 binding site for HDAC but not the upstream p53 binding site. Briefly, the day before transfection, HeLa cells were seeded at 11,000 cells/well in a 96-well culture plate and incubated at 37 degrees Celsius in 5% CO2 overnight. For transfection, the medium was removed and replaced with 100 microliters/well transfection media previously prepared as follows: 5 microliters serum-free DMEM, 0.15 microliters Fugene 6 reagent, 40 ng p21-luc, 10 ng GFP were mixed gently and incubated at room temperature for 30 minutes; then 98 microliters DMEM (with 10% FBS, 1% penicillin and streptomycin) was added to the DNA:Fugene 6 reagent complex and mixed gently. After incubating the cells for 24 hours at 37 degrees Celsius in 5% CO2, fresh media and test compounds were added to the wells and the cells further incubated for 15 hours at 37 degrees Celsius in 5% CO2. Cells were lysed by adding 80 microliters/well of a cell culture lysis reagent (Promega). 50 microliters of each lysate was taken for GFP detection using an excitation wavelength of 486 nm and detection at 527 nm. 100 microliters Luciferase assay reagent (Promega) was then added to every 20 microliters cell lysate for luminometer detection. […] Induction activity for specific representative compounds can be found in Table 4.

[2] = tested on: klf2 promoter-luciferase construct in A204 cells; test: klf2 reporter gene induction (p21 versus klf2 selectivity); conditions: SNDX-275 p21/klf2 ratio defined as 1.0; for p21/klf2 (RP3): relative selectivity compared with SNDX-275: 3 micromolar; for p21/klf2 (RP10): relative selectivity compared with SNDX-275: 10 micromolar
Experimental: as §1
The novel compounds of the present invention were tested for their ability to induce klf2 gene expression using a reporter gene assay involving A204 cells transfected with a klf2 promoter-luciferase construct. The klf2 promoter contained the MEF2 binding site for HDAC3/class IIa HDAC complex. Briefly, the day before transfection, A204 cells were seeded at 11,000 cells/well in a 96-well culture plate and incubated at 37 degrees Celsius in 5% CO2 overnight. For transfection, the medium was removed and replaced with 100 microliters/well transfection media previously prepared as follows: 5 microliters serum-free DMEM, 0.15 microliters Fugene 6 reagent, 40 ng klf2-luc, 10 ng GFP were mixed gently and incubated at room temperature for 30 minutes; then 98 microliters DMEM (with 10% FBS, 1% penicillin and streptomycin) was added to the DNA:Fugene 6 reagent complex and mixed gently. After incubating the cells for 24 hours at 37 degrees Celsius in 5% CO2, fresh media and test compounds were added to the wells and the cells further incubated for 15 hours at 37 degrees Celsius in 5% CO2. Finally, 10 ng/ml TNF-α was added and the cells further incubated for 4 hours. Cells were lysed by adding 80 microliters/well of a cell culture lysis reagent (Promega). 50 microliters of each lysate was taken for GFP detection using an excitation wavelength of 486 nm and detection at 527 nm. 100 microliters Luciferase assay reagent (Promega) was then added to every 20 microliters cell lysate for luminometer detection.

[3] = tested on: HCT-116 colon cancer cells; test: Antiproliferative activity, growth inhibition (MTS/WST assay); conditions: Homo sapiens, 72 hour growth inhibition, read-out: GI50 HCT116
Experimental: The novel compounds of the present invention were tested for their ability to inhibit growth of various cancer cell lines (HeLa, MCF7, U2OS, HepG2, HL60, HCT-116) using in vitro growth inhibition assays described below.
Cells were seeded in 96-well culture plates (200 microliters/well at different seeding concentrations depending on cell type) and incubated overnight at 37 degrees Celsius in 5% CO2. After adding compound dilutions to the cells (DMSO concentration kept below 0.5%), the cells were incubated at 37 degrees Celsius in 5% CO2 for 72 hours. The effects on proliferation were determined by addition of MTS reagent (Promega) according to the manufacturer's instruction, followed by incubation for 2 hours at 37 degrees Celsius in 5% CO2, and finally recording the absorbance at 490 nm using an ELISA plate reader.
Similar to MTS assay except that the developer is the CCK-8 reagent (Dojindo) and the plate reader is set to 450 nm absorbance.
GI50 values against HCT-116 colon cancer cells for specific representative compounds can be found in Table 4.

SMILES	GI50 [3] [nM]	p21 (RP3): relative induction potency compared with SNDX-275 [1] [%]	p21/klf2 (RP3): relative selectivity compared with SNDX-275 [2]	p21/klf2 (RP10): relative selectivity compared with SNDX-275 [2]
Nc1ccccc1NC(=O)/C=C/c1ccc(C(NCCN2C[C@@H]3C[C@H]2CO3)C(=O)Nc2ccc(C(F)(F)F)cc2)cc1 (stereo partly drawn) [Example 4-12, (E)-N-(2-Amino-phenyl)-3-{4-[[(1S,4S)-2-(2-oxa-5-aza-bicyclo[2.2.1]hept-5-yl)-ethylamino]-(4-trifluoromethyl-phenylcarbamoyl)-methyl]-phenyl}-acrylamide]	400	167	10.6	0.8
Nc1ccccc1NC(=O)/C=C/c1ccc(C(NCCN2CCSCC2)C(=O)Nc2ccc(C(F)(F)F)cc2)cc1 (stereo not drawn) [Example 4-14, (E)-N-(2-Amino-phenyl)-3-{4-[(2-thiomorpholin-4-yl-ethylamino)-(4-trifluoromethyl-phenylcarbamoyl)-methyl]-phenyl}-acrylamide]	600	84	1.2	5.1
Nc1ccccc1NC(=O)/C=C/c1ccc(C(NCCN2CCOCC2)C(=O)Nc2ccc(C(F)(F)F)cc2F)cc1 (stereo not drawn) [Example 4-22, (E)-N-(2-Amino-phenyl)-3-{4-[(2-fluoro-4-trifluoromethyl-phenylcarbamoyl)-(2-morpholin-4-yl-ethylamino)-methyl]-phenyl}-acrylamide]	1200	103	1.8	2.0
CN(C)CCNC(C(=O)Nc1ccc(C(F)(F)F)cc1F)c1ccc(/C=C/C(=O)Nc2ccccc2N)cc1 (stereo not drawn) [Example 4-24, (E)-N-(2-Amino-phenyl)-3-{4-[(2-dimethylamino-ethylamino)-(2-fluoro-4-trifluoromethyl-phenylcarbamoyl)-methyl]-phenyl}-acrylamide]	2100	162	1.5	1.5
Nc1ccccc1NC(=O)/C=C/c1ccc(C(NCCN2CCOCC2)C(=O)Nc2ccc(C(F)(F)F)c(Cl)c2)cc1 (stereo not drawn) [Example 4-29, (E)-N-(2-Amino-phenyl)-3-{4-[(3-chloro-4-trifluoromethyl-phenylcarbamoyl)-(2-morpholin-4-yl-ethylamino)-methyl]-phenyl}-acrylamide]	2100	48	0.6	2.3
Nc1ccccc1NC(=O)/C=C/c1ccc(C(NCCN2CCOCC2)C(=O)Nc2ccc(C(F)(F)F)c(F)c2)cc1 (stereo not drawn) [Example 4-36, (E)-N-(2-Amino-phenyl)-3-{4-[(3-fluoro-4-trifluoromethyl-phenylcarbamoyl)-(2-morpholin-4-yl-ethylamino)-methyl]-phenyl}-acrylamide]	2000	43	0.7	3.1

The remaining compounds from weak to strong by GI50 [3], led by results:

GI50 [3] [nM]	SMILES	p21 (RP3): relative induction potency compared with SNDX-275 [1] [%]	p21/klf2 (RP3): relative selectivity compared with SNDX-275 [2]	p21/klf2 (RP10): relative selectivity compared with SNDX-275 [2]
1300	Nc1ccccc1NC(=O)/C=C/c1ccc(C(NCCN2CCCCC2)C(=O)Nc2ccc(C(F)(F)F)cc2F)cc1 (stereo not drawn) [Example 4-35, (E)-N-(2-Amino-phenyl)-3-{4-[(2-fluoro-4-trifluoromethyl-phenylcarbamoyl)-(2-piperidin-1-yl-ethylamino)-methyl]-phenyl}-acrylamide]	140	2.0	3.0
1100	Nc1ccccc1NC(=O)/C=C/c1ccc(C(NCCN2CCOCC2)C(=O)Nc2ccc(OC(F)(F)F)cc2)cc1 (stereo not drawn) [Example 4-4, (E)-N-(2-Amino-phenyl)-3-{4-[(2-morpholin-4-yl-ethylamino)-(4-trifluoromethoxy-phenylcarbamoyl)-methyl]-phenyl}-acrylamide]	125	1.2	3.1
1000	N#Cc1ccc(NC(=O)C(NCCN2CCOCC2)c2ccc(/C=C/C(=O)Nc3ccccc3N)cc2)cc1 (stereo not drawn) [Example 4-3, (E)-N-(2-Amino-phenyl)-3-{4-[(4-cyano-phenylcarbamoyl)-(2-morpholin-4-yl-ethylamino)-methyl]-phenyl}-acrylamide]	99	0.8	1.2
1000	CC(C)c1ccc(NC(=O)C(NCCN2CCOCC2)c2ccc(/C=C/C(=O)Nc3ccccc3N)cc2)cc1 (stereo not drawn) [Example 4-37, (E)-N-(2-Amino-phenyl)-3-{4-[(4-isopropyl-phenylcarbamoyl)-(2-morpholin-4-yl-ethylamino)-methyl]-phenyl}-acrylamide]	60	1.1	1.7
800	Nc1ccccc1NC(=O)/C=C/c1ccc(C(NCCCN2CCOCC2)C(=O)Nc2ccc(C(F)(F)F)cc2)cc1 (stereo not drawn) [Example 4-5, (E)-N-(2-Amino-phenyl)-3-{4-[(3-morpholin-4-yl-propylamino)-(4-trifluoromethyl-phenylcarbamoyl)-methyl]-phenyl}-acrylamide]	241	1.2	4.5
700	CN(C)CCNC(C(=O)Nc1ccc(C(F)(F)F)cc1)c1ccc(/C=C/C(=O)Nc2ccccc2N)cc1 (stereo not drawn) [Example 4-1, (E)-N-(2-Amino-phenyl)-3-{4-[(2-dimethylamino-ethylamino)-(4-trifluoromethyl-phenylcarbamoyl)-methyl]-phenyl}-acrylamide]	300	1.4	5.5
700	Nc1ccccc1NC(=O)/C=C/c1ccc(C(NCCN2CCCCC2)C(=O)Nc2ccc(C(F)(F)F)cc2)cc1 (stereo not drawn) [Example 4-2, (E)-N-(2-Amino-phenyl)-3-{4-[(2-piperidin-1-yl-ethylamino)-(4-trifluoromethyl-phenylcarbamoyl)-methyl]-phenyl}-acrylamide]	324	2.2	3.6
600	CN(C)CCNC(C(=O)Nc1ccc(OC(F)(F)F)cc1)c1ccc(/C=C/C(=O)Nc2ccccc2N)cc1 (stereo not drawn) [Example 4-6, (E)-N-(2-Amino-phenyl)-3-{4-[(2-dimethylamino-ethylamino)-(4-trifluoromethoxy-phenylcarbamoyl)-methyl]-phenyl}-acrylamide]	184	1.4	3.0
200	Nc1ccccc1NC(=O)/C=C/c1ccc(C(NCCN2CCCCC2)C(=O)Nc2ccc(Br)cc2)cc1 (stereo not drawn) [Example 4-31, (E)-N-(2-Amino-phenyl)-3-{4-[(4-bromo-phenylcarbamoyl)-(2-piperidin-1-yl-ethylamino)-methyl]-phenyl}-acrylamide]	178	1.2	1.2
